Where two headings read alike, the source gives them in different places.
Experiments:
Drosophila OR71a = biological target: T1, Drosophila OR71a (Drosophila melanogaster, UniProt Q9VUK5); assay: Calcium ion fluorescence (GCaMP6) assay, OR71a stable HEK293 cell line; format: cell-based; conditions: for OR71a response (VUAA1-normalized) at 1 μM / OR71a response (VUAA1-normalized) at 10 μM / OR71a response (VUAA1-normalized) at 100 μM / Average response: OR71a cell line; for Average response: VUAA1-normalized response, mean of biological replicates; for activation at 1 µM / activation at 10 µM / activation at 100 µM: HEK293, read-out: OR71a response (VUAA1-normalized response)
T1 construct: expressed in transfected cells
T1 sequence (Q9VUK5 1-378): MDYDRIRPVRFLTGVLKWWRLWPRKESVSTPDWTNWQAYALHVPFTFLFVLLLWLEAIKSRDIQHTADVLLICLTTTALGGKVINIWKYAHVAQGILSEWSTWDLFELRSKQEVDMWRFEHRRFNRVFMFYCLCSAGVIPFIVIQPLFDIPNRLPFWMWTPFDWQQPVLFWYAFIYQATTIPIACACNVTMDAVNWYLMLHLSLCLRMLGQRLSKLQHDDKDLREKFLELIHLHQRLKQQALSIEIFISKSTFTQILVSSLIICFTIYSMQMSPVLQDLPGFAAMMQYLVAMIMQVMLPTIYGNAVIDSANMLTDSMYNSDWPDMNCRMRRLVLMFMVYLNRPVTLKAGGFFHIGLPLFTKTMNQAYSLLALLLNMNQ
T1 sequence (Q9VNB5 1-486 partner): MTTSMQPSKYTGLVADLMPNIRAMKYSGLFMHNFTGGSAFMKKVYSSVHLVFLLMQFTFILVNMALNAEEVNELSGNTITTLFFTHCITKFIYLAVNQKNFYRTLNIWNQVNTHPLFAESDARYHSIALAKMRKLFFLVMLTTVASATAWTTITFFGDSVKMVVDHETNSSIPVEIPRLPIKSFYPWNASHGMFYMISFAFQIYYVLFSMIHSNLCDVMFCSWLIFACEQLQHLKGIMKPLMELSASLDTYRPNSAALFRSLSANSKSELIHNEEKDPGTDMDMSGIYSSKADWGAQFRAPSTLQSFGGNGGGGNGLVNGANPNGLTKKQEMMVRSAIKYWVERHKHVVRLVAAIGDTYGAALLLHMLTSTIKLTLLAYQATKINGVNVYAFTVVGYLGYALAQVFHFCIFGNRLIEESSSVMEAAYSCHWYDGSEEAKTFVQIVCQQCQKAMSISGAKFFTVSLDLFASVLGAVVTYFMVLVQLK
Method: (§1) These VUAA1 normalized ∆F values were used to compare the different receptors and ligands.
(§2) The concentration-dependent effect of the reference ligands on their cognate cell lines was examined in more detail. Twelve different ligand concentrations were measured on each cell line in an overall 0.01 μM to 100 μM concentration range with 5 repetitions with three technical replicates each time.
(§3) Twelve thousand to 18,000 cells were plated into each well of a black wall, transparent bottom 384-well microplate (Greiner) 48 h or 72 h before the measurements and were simultaneously treated with 1 μg/mL doxycycline. […] The plate has 24 columns, thus we could record responses in up to eight different cell lines in each plate. On the day of the experiment, the growth medium was replaced with 20 µL assay buffer/well (140 mM NaCl, 5 mM KCl, 2 mM CaCl2, 1 mM MgCl2, 5 mM HEPES-Na, 20 mM glucose, pH 7.3, 340 mOsm). […] Baseline fluorescence (F0) was recorded for 5 s, after which 7 µL VOC buffer (140 mM NaCl, 5 mM KCl, 2 mM CaCl2, 1 mM MgCl2, 5 mM HEPES-Na, 31 mM glucose, 0.1% DMSO, pH 7.3, 340 mOsm) was injected into each well in one row and the fluorescence response was recorded for an additional 30 s, at a rate of one read/sec. VOC solutions (VOC buffer with 4× concentration of the final measured VOC concentration, 9 µL/well was injected) were measured on the same wells in a second round with the same protocol. Each individual concentration of a specific VOC sample was recorded in three wells for the same cell line on the same microplate. The raw data were exported in xls file format, F0 and FMAX values, and the fluorescence intensity changes (∆F) were calculated in Excel (Microsoft) (Supplementary file Data summary.xlsx) using the following equation: ΔF=FMAX-F0/F0 (see also Fig. 1C). On each plate, we recorded the response of each cell line to 50 µM VUAA1. The average of these ∆F values of each cell line were used to calculate the VUAA1-normalized values for the rest of the plate, by dividing VOC response ∆F values by the average VUAA1 response ∆F value of the corresponding OR cell line. Each VOC-OR combination was measured three times as technical replicates. […] The average of these replicates were used as one ∆F and VUAA1-normalized ∆F in the following analysis.
(§4) In the next rows we tested the reference VOCs (or other VOCs known to activate the corresponding cell lines), in order to test if all cell lines are responsive. The remaining rows were used to test VOCs with unknown effect.
(§5) The recorded FMAX, F0, ∆F, VUAA1-normalized ∆F values, as well as the OR name, the name of the tested sample, and the final concentration for each well were copied into supplementary file Data summary.xlsx, that was used to summarize all the plates recorded. Here, the averages of the measurements were calculated for each receptor-VOC-concentration combination.

Drosophila OR98a = biological target: T2, Drosophila OR98a (Drosophila melanogaster, UniProt Q9VAZ3); assay: Calcium ion fluorescence (GCaMP6) assay, OR98a stable HEK293 cell line; format: cell-based; conditions: for OR98a response (VUAA1-normalized) at 1 μM / OR98a response (VUAA1-normalized) at 10 μM / OR98a response (VUAA1-normalized) at 100 μM / Average response: OR98a cell line; for Average response: average of biological replicates, fraction of VUAA1 response
T2 construct: expressed in transfected cells
T2 sequence (Q9VAZ3 1-397): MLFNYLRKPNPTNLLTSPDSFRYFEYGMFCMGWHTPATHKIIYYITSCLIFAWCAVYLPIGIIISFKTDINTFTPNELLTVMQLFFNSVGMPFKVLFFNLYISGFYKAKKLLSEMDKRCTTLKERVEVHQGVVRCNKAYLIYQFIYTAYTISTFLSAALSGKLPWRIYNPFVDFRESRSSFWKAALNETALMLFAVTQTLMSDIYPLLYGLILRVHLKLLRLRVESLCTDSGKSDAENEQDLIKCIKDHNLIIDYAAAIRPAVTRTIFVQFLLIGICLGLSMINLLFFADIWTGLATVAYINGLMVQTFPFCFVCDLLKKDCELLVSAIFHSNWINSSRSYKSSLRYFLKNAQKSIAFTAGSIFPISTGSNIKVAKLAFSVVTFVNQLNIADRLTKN
T2 sequence (Q9VNB5 1-486 partner): T1 sequence (Q9VNB5 1-486 partner)
Method: as §1, §2, §3, §4, §5

[1] = ligand concentration 1 (unit not given), threshold 0.05, below shown as 0
[2] = ligand concentration 10 (unit not given), threshold 0.05, below shown as 0
[3] = ligand concentration 100 (unit not given), threshold 0.05, below shown as 0
[4] = HEK293, read-out: Average response
[5] = concentration 1, normalized fluorescence change, values below 0.05 threshold given as 0
[6] = concentration 10, normalized fluorescence change, values below 0.05 threshold given as 0
[7] = concentration 100, normalized fluorescence change, values below 0.05 threshold given as 0
[8] = HEK293, read-out: OR98a response (VUAA1-normalized response)

Compound | OR71a response (VUAA1-normalized) at 1 μM (Drosophila OR71a; VOC concentration 1 μM) | OR71a response (VUAA1-normalized) at 10 μM (Drosophila OR71a; VOC concentration 10 μM) | OR71a response (VUAA1-normalized) at 100 μM (Drosophila OR71a; VOC concentration 100 μM) | Average response (Drosophila OR71a; cc. 1 µM) | Average response (Drosophila OR71a; cc. 10 µM) | Average response (Drosophila OR71a; cc. 100 µM) | DF norm AVERAGE OR71a (Drosophila OR71a; [1]) | DF norm AVERAGE OR71a (Drosophila OR71a; [2]) | DF norm AVERAGE OR71a (Drosophila OR71a; [3]) | activation at 1 µM (Drosophila OR98a; [4]) [%] | activation at 10 µM (Drosophila OR98a; [4]) [%] | activation at 100 µM (Drosophila OR98a; [4]) [%] | OR98a response (VUAA1-normalized) at 1 μM (Drosophila OR98a; VOC concentration 1 μM) | OR98a response (VUAA1-normalized) at 10 μM (Drosophila OR98a; VOC concentration 10 μM) | DF norm AVERAGE OR98a (Drosophila OR98a; [1]) | DF norm AVERAGE OR98a (Drosophila OR98a; [2]) | DF norm AVERAGE OR98a (Drosophila OR98a; [3]) | activation at 1 µM (Drosophila OR71a) [%] | activation at 10 µM (Drosophila OR71a) [%] | activation at 100 µM (Drosophila OR71a) [%] | other results
Cc1ccccc1C [o-xylene] | 0.00 | 0.00 | 0.00 | 0.00 | 0.00 | 0.00 | 0 | 0 | 0 | 0 | 0 | 0 | 0.00 | 0.00 | 0 | 0 | 0 |  |  |  | OR98a response (VUAA1-normalized) at 100 μM (Drosophila OR98a; VOC concentration 100 μM): 0.00
C=C1CCC2(C(C)C)CC12 (stereo not drawn) [sabinene] | 0.00 | 0.00 | 0.00 | 0.00 | 0.00 | 0.0235 | 0 | 0 | 0 | 0 | 10 | 2 | 0.00 | 0.10 | 0 | 0.1017 | 0 |  |  |  | OR98a response (VUAA1-normalized) at 100 μM (Drosophila OR98a; VOC concentration 100 μM): 0.00
C=C1CC/C=C(\C)CC[C@@H]2[C@@H]1CC2(C)C [(-)-trans-caryophyllene] |  |  |  | 0.0273 | 0.00 | 0.00 |  |  |  | 7 | 6 | 6 |  |  |  |  |  | 0 | 0 | 0 | DF norm AVERAGE OR71a (Drosophila OR71a; [5]): 0; DF norm AVERAGE OR71a (Drosophila OR71a; [6]): 0; DF norm AVERAGE OR71a (Drosophila OR71a; [7]): 0; activation at 1 µM (Drosophila OR98a; [8]): 7%; activation at 10 µM (Drosophila OR98a; [8]): 6%; activation at 100 µM (Drosophila OR98a; [8]): 6%; DF norm AVERAGE OR98a (Drosophila OR98a; [5]): 0.06975; DF norm AVERAGE OR98a (Drosophila OR98a; [6]): 0.06201; DF norm AVERAGE OR98a (Drosophila OR98a; [7]): 0.05748
C=C1CCC2CC1C2(C)C (stereo not drawn) [beta-pinene] |  |  |  | 0.0344 | 0.0361 | 0.00 | 0 | 0 | 0 | 19 | 17 | 1.89 |  |  | 0.1942 | 0.1655 | 0 | 0 | 0 | 0 | activation at 1 µM (Drosophila OR98a; [8]): 19%; activation at 10 µM (Drosophila OR98a; [8]): 17%; activation at 100 µM (Drosophila OR98a; [8]): 0%
(-)-alpha-cedrene |  |  |  | 0.00 | 0.043 | 0.00 |  |  |  |  |  |  |  |  |  |  |  |  |  |  | OR71a response (VUAA1-normalized response) (Drosophila OR71a; VOC concentration 1 μM): 0.00; OR71a response (VUAA1-normalized response) (Drosophila OR71a; VOC concentration 10 μM): 0.00; OR71a response (VUAA1-normalized response) (Drosophila OR71a; VOC concentration 100 μM): 0.00; DF norm AVERAGE OR71a (Drosophila OR71a; [5]): 0; DF norm AVERAGE OR71a (Drosophila OR71a; [6]): 0; DF norm AVERAGE OR71a (Drosophila OR71a; [7]): 0; OR98a response (VUAA1-normalized response) (Drosophila OR98a; VOC concentration 1 μM): 0.00; OR98a response (VUAA1-normalized response) (Drosophila OR98a; VOC concentration 10 μM): 0.00; OR98a response (VUAA1-normalized response) (Drosophila OR98a; VOC concentration 100 μM): 0.00; Average response (Drosophila OR98a; cc. 1 µM): 0.00; Average response (Drosophila OR98a; cc. 10 µM): 0.0421; Average response (Drosophila OR98a; cc. 100 µM): 0.0341; DF norm AVERAGE OR98a (Drosophila OR98a; [5]): 0; DF norm AVERAGE OR98a (Drosophila OR98a; [6]): 0; DF norm AVERAGE OR98a (Drosophila OR98a; [7]): 0
CCCCOC(=O)CC [butyl propanoate] |  |  |  | 0.00 | 0.00 | 0.03 | 0 | 0 | 0 |  |  |  |  |  |  |  |  | 0 | 0 | 0 | 
